Experimental data as given in article PMC5890335 (Journal of immunology (Baltimore, Md. : 1950), 2018).

Assays:
H2-D^d MHC-I molecule = H2-D^d MHC-I molecule (Mus musculus, UniProt P01900); assay: Peptide induction of surface H2-D^d expression on RMAS-D^d cells; type: cell-based; settings: fluorescence index, ANOVA, compared with s.p.VV10, Fig 4c
[1] = biological target: H2-D^d MHC-I molecule on RMAS-D^d cells (mouse); assay: flow cytometry on cells
Sequence of H2-D^d MHC-I molecule on RMAS-D^d cells (mouse) (P01900 25-365): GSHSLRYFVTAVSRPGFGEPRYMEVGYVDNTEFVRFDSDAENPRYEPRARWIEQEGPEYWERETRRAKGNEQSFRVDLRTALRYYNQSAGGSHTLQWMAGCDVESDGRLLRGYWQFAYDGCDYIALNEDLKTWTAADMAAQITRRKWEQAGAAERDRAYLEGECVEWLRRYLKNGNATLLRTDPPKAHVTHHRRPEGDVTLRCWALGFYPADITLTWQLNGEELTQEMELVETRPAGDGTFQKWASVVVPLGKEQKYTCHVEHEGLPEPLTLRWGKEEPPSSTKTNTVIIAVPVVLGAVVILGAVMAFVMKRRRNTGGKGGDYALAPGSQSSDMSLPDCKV

Sequence of H2-D^d MHC-I molecule (P01900 whole entry, looked up): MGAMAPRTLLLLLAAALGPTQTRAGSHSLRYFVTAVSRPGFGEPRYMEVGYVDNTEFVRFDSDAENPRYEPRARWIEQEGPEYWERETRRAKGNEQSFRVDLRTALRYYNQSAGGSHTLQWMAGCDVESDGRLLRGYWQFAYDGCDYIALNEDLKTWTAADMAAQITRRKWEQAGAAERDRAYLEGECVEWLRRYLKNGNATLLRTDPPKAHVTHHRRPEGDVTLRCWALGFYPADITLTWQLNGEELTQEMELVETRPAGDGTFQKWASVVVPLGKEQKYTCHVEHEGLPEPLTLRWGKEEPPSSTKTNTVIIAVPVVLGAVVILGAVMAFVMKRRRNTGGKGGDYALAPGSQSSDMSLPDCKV

Molecule	comparison of H2-D^d binding titration curves of the 9-mer peptides (H2-D^d MHC-I molecule)	FI0.5 (peptide concentration giving a 50% increase in H2-D^d surface expression) [1] [µg/mL]
IGPGRAFYT [s.p.T9]	do not differ from each other	–
IGPGRAFYV [s.p.V9]	do not differ from each other	–
s.p.TT10 (…), minimal V3 epitope of HIV-1MN gp120, gp120 314-323 (peptide)	–	1
IGPGRAFYVV [s.p.VV10 (…)]	–	1
